A value given as a limit tells only on which side of the number the result lay.

In general, melting point refers to the temperature of the solid-liquid transition. The molecule `Cl.N[C@H]1CC[C@H](Nc2nccc(-n3ccc4c(F)cccc43)n2)CC1` showed a melting point of over 300 °C.

As to `CS(=O)(=O)CCCOc1cccc2c1ccn2-c1ccnc(N[C@H]2CC[C@H](N)CC2)n1.Cl`, the melting point lay within 291 to 292 °C. The result for `CS(=O)(=O)CCCOc1cccc2c1ccn2-c1ccnc(N[C@H]2CC[C@H](NC(=O)CCN)CC2)n1.Cl` reads 263 to 264 °C; that for `CS(=O)(=O)CCCOc1cccc2c1ccn2-c1ccnc(N[C@H]2CC[C@H](CN)CC2)n1.Cl`, 292 to 293 °C.

`Cl.NC[C@H]1CC[C@H](Nc2nccc(-n3ccc4c(OCCCC(F)(F)F)cccc43)n2)CC1` yielded a melting point of 274 to 275 °C. Take `CS(=O)(=O)CCCOc1cccc2c1ccn2-c1ccnc(N[C@H]2CC[C@H](C(=O)N3CCC(=O)CC3)CC2)n1`: the melting point fell in the range of 155 to 158.2 °C. The result for `CC1(C)OC[C@@H](COc2cccc3c2cnn3-c2ccnc(N[C@H]3CC[C@H](O)CC3)n2)O1` (stereo in doubt) [Compound 98, 4-{4-[4-(2,2-dimethyl-[1,3]dioxolan-4-ylmeth-oxy)-indazol-1-yl]-pyrimidin-2-ylamino}-cyclohexanol] reads 189.2 to 190 °C. `CC1(C)OC[C@@H](COc2cccc3c2cnn3-c2ccnc(N[C@H]3CC[C@H](C(=O)N4CCCC4)CC3)n2)O1` (stereo in doubt) [Compound 127, (4-{4-[4-(2,2-dimethyl-[1,3]dioxolan-4-yl-methoxy)-indazol-1-yl]-pyrimidin-2-ylamino}-cyclohexyl)-pyrrolidin-1-ylmethanone] returned a melting point of 196 to 198 °C. Consider `CC1(C)OC[C@@H](COc2cccc3c2cnn3-c2ccnc(N[C@H]3CC[C@H](NS(C)(=O)=O)CC3)n2)O1` (stereo in doubt) [Compound 128, N-(4-{4-[4-(2,2-di-methyl[1,3]dioxolan-4-ylmethoxy)-indazol-1-yl]-pyrimidin-2-yl-amino}-cyclohexyl)-methanesulfonamide], for which the melting point lay within 247 to 247.8 °C. On to `CC(=O)N[C@H]1CC[C@H](Nc2nccc(-n3ncc4c(OC[C@@H]5COC(C)(C)O5)cccc43)n2)CC1` (stereo in doubt) [Compound 131, N-(4-{4-[4-(2,2-di-methyl[1,3]dioxolan-4-ylmethoxy)-indazol-1-yl]-pyrimidin-2-yl-amino}-cyclohexyl)-acetamide], for which the melting point is 214.5 to 215.5 °C. The molecule `CC1(C)OC[C@@H](COc2cccc3c2cnn3-c2ccnc(N[C@H]3CC[C@H](C(C)(C)O)CC3)n2)O1` (stereo in doubt) [Compound 132, 2-(4-{4-[4-(2,2-di-methyl[1,3]dioxolan-4-ylmethoxy)-indazol-1-yl]-pyrimidin-2-yl-amino}-cyclohexyl)-propan-2-ol] came in with a melting point of 178.5 to 180 °C. With `O=C([C@H]1CC[C@H](Nc2nccc(-n3ncc4c(OC[C@@H](O)CO)cccc43)n2)CC1)N1CCCC1` (stereo in doubt) [Compound 153, (4-{4-[4-(2,3-dihydroxy-propoxy)-indazol-1-yl]-pyrimidin-2ylamino}-cyclohexyl)-pyrrolidin-1-ylmethanone], the melting point is 166 to 167 °C. Regarding `CC(=O)N[C@H]1CC[C@H](Nc2nccc(-n3ncc4c(OC[C@@H](O)CO)cccc43)n2)CC1` (stereo in doubt) [Compound 154, N-(4-{4-[4-(2,3-di-hydroxy-propoxy)-indazol-1-yl]-pyrimidin-2-ylamino}-cyclohexyl)-acetamide], the melting point lay in the range of 202 to 205 °C. `C[C@@H](CO)COc1cccc2c1cnn2-c1ccnc(N[C@H]2CC[C@H](C(=O)N3CCCC3)CC2)n1` (stereo in doubt) [Compound 171, (4-{4-[4-(3-hydroxy-2-methylpropoxy)-indazol-1-yl]-pyrimidin-2-ylamino}-cyclohexyl)-pyrrolidin-1-ylmethanone] yielded a melting point of 199.4 to 200.4 °C. The molecule `CC(=O)N[C@H]1CC[C@H](Nc2nccc(-n3ncc4c(OC[C@@H](C)CO)cccc43)n2)CC1` (stereo in doubt) [Compound 172, N-(4-{4-[4-(3-hydroxy-2-methylpropoxy)-indazol-1-yl]-pyrimidin-2-ylamino}-cyclohexyl)-acetamide] had a melting point of 215 to 216 °C. With `C[C@@H](CO)COc1cccc2c1cnn2-c1ccnc(N[C@H]2CC[C@H](C(C)(C)O)CC2)n1` (stereo in doubt) [Compound 185, 3-(1-{2-[4-(2-hydroxy-prop-2-yl)-cyclohexyl-amino]-pyrimidin-4-yl}-1H-indazol-4-yloxy)-2-methylpropan-1-ol], the melting point fell in the range of 211 to 212.5 °C. For `C[C@@H](CO)COc1cccc2c1cnn2-c1ccnc(N[C@H]2CC[C@H](N(C)S(C)(=O)=O)CC2)n1` (stereo in doubt) [Compound 186, N-(4-{4-[4-(3-hydroxy-2-methylpropoxy)-indazol-1-yl]-pyrimidin-2-ylamino}-cyclohexyl)-N-methyl-methanesulfonamide], the melting point was 222 to 224 °C. For `CS(=O)(=O)C[C@H](O)COc1cccc2c1cnn2-c1ccnc(N[C@H]2CC[C@H](O)CC2)n1` (stereo in doubt) [Compound 198, 4-{4-[4-(2-hydroxy-3-methanesulfonyl-propoxy)-indazol-1-yl]-pyrimidin-2-ylamino}-cyclohexanol] the value was 211 to 212 °C; for `CS(=O)(=O)CCCOc1cccc2c1cnn2-c1ccnc(N[C@H]2CC[C@H](C(=O)N3CC[C@@H](O)C3)CC2)n1` (stereo in doubt) [Compound 216, (3-hydroxy-pyrrolidin-1-yl)-(4-{4-[4-(3-methane-sulfonyl-propoxy)-indazol-1-yl]-pyrimidin-2-ylamino}-cyclohexyl)-methanone], 174 to 175 °C; for `CS(=O)(=O)CCCOc1cccc2c1cnn2-c1ccnc(N[C@H]2CC[C@H](C(=O)N3CC[C@H](O)C3)CC2)n1` (stereo in doubt) [Compound 217, (3-hydroxy-pyrrolidin-1-yl)-(4-{4-[4-(3-methane-sulfonyl-propoxy)-indazol-1-yl]-pyrimidin-2-ylamino}-cyclohexyl)-methanone], 175 to 176 °C. For the molecule `CS(=O)(=O)C[C@H](O)COc1cccc2c1cnn2-c1ccnc(N[C@H]2CC[C@H](C(=O)N3CCC(O)CC3)CC2)n1` (stereo in doubt) [Compound 234, (4-{4-[4-(2-hydroxy-3-methanesulfonyl-propoxy)-indazol-1-yl]-pyrimidin-2-ylamino}-cyclohexyl)-(4-hydroxy-piperidin-1-yl)-methanone], the melting point is 232 to 233 °C. As to `NS(=O)(=O)CCCOc1cccc2c1cnn2-c1ccnc(N[C@H]2CC[C@H](C(=O)N3CC[C@H](O)C3)CC2)n1` (stereo in doubt) [Compound 252, 3-(1-{2-[4-(3-hydroxy-pyrrolidine-1-carbonyl)-cyclohexylamino]-pyrimidin-4-yl}-1H-indazol-4-yloxy)-propane-1-sulfonic acid amide], the melting point was in the range of 161 to 162 °C.

Regarding `NS(=O)(=O)CCCOc1cccc2c1cnn2-c1ccnc(N[C@H]2CC[C@H](C(=O)N3CC[C@@H](O)C3)CC2)n1` (stereo in doubt) [Compound 253, 3-(1-{2-[4-(3-hydroxy-pyrrolidine-1-carbonyl)-cyclohexylamino]-pyrimidin-4-yl}-1H-indazol-4-yloxy)-propane-1-sulfonic acid amide], the melting point fell in the range of 178 to 179 °C. `CC(C)(CO)COc1cccc2c1cnn2-c1ccnc(N[C@H]2CC[C@H](C(=O)N3CC[C@@H](O)C3)CC2)n1` (stereo in doubt) [Compound 261, (4-{4-[4-(3-hydroxy-2,2-dimethyl-propoxy)-indazol-1-yl]-pyrimidin-2-ylamino}-cyclohexyl)-(3-hydroxy-pyrrolidin-1-yl)-methanone] showed a melting point of 214 to 215 °C. In the case of `COC[C@@H]1CCCN1C(=O)[C@H]1CC[C@H](Nc2nccc(-n3ccc4c(OCCCS(C)(=O)=O)cccc43)n2)CC1` (stereo in doubt) [Compound 266, (4-{4-[4-(3-methane-sulfonyl-propoxy)-indol-1-yl]-pyrimidin-2-ylamino}-cyclohexyl)-(2-methoxymethyl-pyrrolidin-1-yl)-methanone], the melting point was 92 to 93 °C.

`C[C@@H]1CC[C@@H](C)N1C(=O)[C@H]1CC[C@H](Nc2nccc(-n3ncc4c(OCCCS(N)(=O)=O)cccc43)n2)CC1` (stereo in doubt) [Compound 271, 3-(1-{2-[4-(2,5-di-methyl-pyrrolidine-1-carbonyl)-cyclohexyl-amino]-pyrimidin-4-yl}-1H-indazol4-yloxy)-propane-1-sulfonic acid amide] yielded a melting point of 230 to 231 °C. Molecule `C[C@@H]1CCCN1C(=O)[C@H]1CC[C@H](Nc2nccc(-n3ncc4c(OCCCS(N)(=O)=O)cccc43)n2)CC1` (stereo in doubt) [Compound 272, 3-(1-{2-[4-(2-methyl-pyrrolidine-1-carbonyl)-cyclohexylamino]-pyrimidin-4-yl}-1H-indazol4-yloxy)-propane-1-sulfonic acid amide] returned a melting point of 230 to 231 °C. The molecule `C[C@H]1CCCN1C(=O)[C@H]1CC[C@H](Nc2nccc(-n3ncc4c(OCCCS(N)(=O)=O)cccc43)n2)CC1` (stereo in doubt) [Compound 273, 3-(1-{2-[4-(2-methyl-pyrrolidine-1-carbonyl)-cyclohexylamino]-pyrimidin-4-yl}-1H-indazol-4-yloxy)-propane-1-sulfonic acid amide] yielded a melting point of 230 to 231 °C.

Molecule `O=[N+]([O-])c1ccc2cnn(-c3ccnc(N[C@H]4CC[C@H](O)CC4)n3)c2c1` [Compound 27] gave a melting point of 221.8 to 223 °C. Take `COC(=O)c1cccc2c1ccn2-c1ccnc(N[C@H]2CC[C@H](O)CC2)n1` [Compound 37, 1-[2-(4-hydroxycyclo-hexylamino)-pyrimidin-4-yl]-1H-indole-4-carboxylic acid methyl ester]: the melting point fell in the range of 206.7 to 208.3 °C. `N[C@H]1CC[C@H](Nc2nccc(-n3ccc4ccccc43)n2)CC1` [Compound 52, N-(4-indol-1-yl-pyrimidin-2-yl)-cyclo-hexane-1,4-diamine] yielded a melting point of 270.1 to 273.3 °C. The molecule `c1ccc2c(c1)ccn2-c1ccnc(NC2CCCCC2)n1` [Compound 66, Cyclohexyl-(4-indol-1-ylpyrimidin-2-yl)amine] returned a melting point of 192.5 to 193 °C.

(Values after patent US8399462B2, “JNK modulators” (Roche Palo Alto LLC, priority 2006, dated 2013).)
